IC50 and EC50 data for four compounds are collected here from patent US9200009B2, “Polycyclic pyridone derivative having integrase inhibitory activity” (Shionogi & Co., Ltd., priority 2011, dated 2015).

The target of one assay is integrase (Human immunodeficiency virus type 1 group M subtype B, UniProt P04585). Briefly: Integrase inhibitory activity (Experimental Example 1). Conditions: integrase strand transfer ELISA, absorbance OD 405 nm. The format is biochemical, HIV. Here is the method:
(1) Preparation of DNA Solution
By the same method as that described in Experimental Example 1 of Patent Document 2, a substrate DNA solution (2 pmol/μl) and a target DNA solution (5 pmol/μl) were prepared. […] Each sequence of a substrate DNA and a target DNA is as described in the same Experimental Example.
(2) Measurement of Inhibition Rate (IC50 Value)
Onto Immobilizer—Streptavidin Plates (manufactured by NUNC) was added 100 μl of a substrate DNA solution (2 pmol/μl). After adsorbing at room temperature for 60 minutes under shaking, it was washed with a phosphate buffer two times.
Then, to each well prepared as described above were added 51 μl of a reaction solution prepared from 12 μl of a buffer (composition: 150 mM MOPS (pH 7.2), 75 mM MnCl2, 50 mM 2-mercaptoethanol, 25% glycerol, 500 μg/ml bovine serum albumin-fraction V) and 39 μl of distilled water. Then, 9 μl of an integrase solution (30 pmol) was added, and the mixture was mixed well. To a well as a negative control (NC) was added 9 μl of a diluting solution (composition: 50 mM Hepes (pH 8.0), 10 mM DTT, 10% Glycerol, 0.5 M NaCl), and this was mixed well using a plate mixer.
After the plate was incubated at 30° C. for 60 minutes, the reaction solution was discarded, followed by washing with 200 μl of a washing buffer (composition: 150 mM MOPS (pH 7.2), 50 mM 2-mercaptoethanol, 25% glycerol, 500 μg/ml bovine serum albumin-fraction V) three times.
Then, to each well were added 53 μl of a reaction solution prepared from 12 μl of a buffer (composition: 150 mM MOPS (pH 7.2), 75 mM MgCl2, 50 mM 2-mercaptoethanol, 25% glycerol, 500 μg/ml bovine serum albumin-fraction V) and 41 μl of distilled water. Further, 6 μl of a solution of a test compound in DMSO was added to each well, and 6 μl of DMSO was added to wells as a positive control (PC) and a negative control (NC), followed by mixing well using a plate mixer. After the plate was incubated at 30° C. for 60 minutes, 1 μl of a target DNA (5 pmol/μl) was added, and this was mixed well using a plate mixer.
After each plate was incubated at 30° C. for 10 minutes, the reaction solution was discarded, followed by washing with a phosphate buffer two times. Then, an anti-digoxigenin antibody labeled with alkaline phosphatase (sheep Fab fragment: manufactured by Boehringer) was diluted 2000-fold with an antibody diluting solution, 100 μl of the diluent was added to bind at 30° C. for 1 hour, and this was washed successively with a phosphate buffer containing 0.05% Tween 20 two times, and a phosphate buffer two times. […] C abs.: Absorbance of well of compound NC abs.: Absorbance of NC PC abs.: Absorbance of PC

A further assay has as its system HIV virus. Briefly: Anti-HIV activity in MT-4 cells, MTT (Experimental Example 2). The class given is cell-based. Conditions: Human immunodeficiency virus 1, MT4, 96 h, 50% HIV inhibition concentration, 4 days incubation. The procedure:
Previously, a series of two-fold dilution on test samples were carried out in a 96-well plate (50 μL/well). Two plates were made for measuring anti-HIV activity and measuring cytotoxicity. For each agent, measurement in duplicate was carried out. An MT-4 cell suspension of 2.5×10^5/mL was dispensed at 100 μL/well onto the 96-well plate containing the test samples. An HIV virus solution was dispensed at 50 μL/well onto the 96-well plate containing the test samples and the cell. To the plate for measuring cytotoxicity, a culture solution was dispensed at 50 μL/well. It was mixed by a plate mixer, and then incubated in a CO2 incubator for 4 days. […] Thirty microliters of a MTT (3-(4,5-dimethylthiazol-2-yl)-2,5-diphenyltetrazolium bromide) solution was dispensed to each well.
A reaction was allowed to occur in a CO2 incubator for 1 hour. From each well, 150 μL of the supernatant was removed such that cells are not sucked. One-hundred and fifty microliters of a cell lysis solution was added thereto, and then it was mixed well by a plate mixer until the whole cells are lysed. The mixed 96-well plates were measured by a microplate reader at two wavelengths, 560 nm/690 nm. Based on the following calculation formula, 50% HIV inhibition concentration (EC50) was calculated. […]
Based on the following calculation formula, selectivity index was calculated. […]

On integrase, `C[C@@H]1CCO[C@H]2Cn3cc(-c4ncc(Cc5ccc(F)cc5)s4)c(=O)c(O)c3C(=O)N12` [Example 1] showed an IC50 of 3.9 nM.

For the compound `C[C@@H]1CCO[C@H]2Cn3cc(-c4ncc(Cc5ccc(F)cc5F)s4)c(=O)c(O)c3C(=O)N12` [Example 2], at integrase, the IC50 is 2 nM. Further, in the assay on HIV virus, it took 2.8 nM to reach a half-maximal effect (EC50).

On integrase, `C[C@@H]1CCO[C@H]2Cn3cc(-c4nnc(Cc5ccc(F)cc5)s4)c(=O)c(O)c3C(=O)N12` [Example 3] had an IC50 of 3.8 nM.

`C[C@@H]1CCO[C@H]2Cn3cc(-c4nnc(Cc5ccc(F)cc5F)s4)c(=O)c(O)c3C(=O)N12` [Example 4] had an IC50 on integrase of 1.3 nM. The compound also displayed an EC50 with HIV virus of 1.7 nM.
